From patent publication US8883782B2, “Spiro-tetracyclic ring compounds as beta-secretase modulators and methods of use” (Amgen Inc., priority 2010, dated 2014) come the findings set out here.

The target of assay [1] is Beta Secretase enzyme (BACE) (Homo sapiens, UniProt P56817). Kind of assay: In vitro enzymatic BACE FRET (fluorescence resonance energy transfer) assay. The assay is classed as biochemical. The note with it: average IC50, enzyme assay; read-out: BACE 1 FRET assay. An outline of the steps: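 Cleavage of a 50 nM fluorophore/quencher peptide FRET substrate by BACE for 1 h in 0.05 M acetate pH 4.2, 10% DMSO, 100 uM genapol. Reaction stopped with Tris to neutral pH before fluorescence reading.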
Chain of Beta Secretase enzyme (BACE) (P56817 46-501, species assumed): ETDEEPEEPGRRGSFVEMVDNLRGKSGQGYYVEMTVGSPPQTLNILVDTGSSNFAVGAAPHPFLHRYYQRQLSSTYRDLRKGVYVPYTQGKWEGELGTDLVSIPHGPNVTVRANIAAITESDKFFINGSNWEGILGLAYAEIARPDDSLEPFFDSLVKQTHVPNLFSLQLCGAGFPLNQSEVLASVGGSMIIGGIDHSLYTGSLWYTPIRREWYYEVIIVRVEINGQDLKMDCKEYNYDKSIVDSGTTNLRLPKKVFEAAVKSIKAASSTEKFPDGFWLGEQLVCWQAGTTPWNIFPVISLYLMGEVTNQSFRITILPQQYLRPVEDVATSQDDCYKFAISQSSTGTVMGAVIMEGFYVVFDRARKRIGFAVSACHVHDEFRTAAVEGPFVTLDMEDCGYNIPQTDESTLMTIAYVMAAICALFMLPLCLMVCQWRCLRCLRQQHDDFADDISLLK

The test system of assay [2] is Aβ40 in conditioned medium of cells stably expressing Amyloid Precursor Protein (APP). Kind of assay: In vitro BACE cell-based assay (Aβ40 in conditioned medium, sandwich ELISA). The note with it: Homo sapiens, HEK293, average IC50, HEK cells; read-out: HEK cell assay. An outline of the steps:
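Quantification relied on pAb40/6E10 sandwich ELISA with Europium fluorescence counts, and IC50 was fitted versus concentration.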

For the compound `CN(c1cc(F)c2c(c1)[C@]1(COC(N)=N1)c1cc(-c3cccnc3F)ccc1O2)C1COC1` [Example 854, (4S)-4′-fluoro-7′-(2-fluoro-3-pyridinyl)-N~2~′-methyl-N~2~′-3-oxetanylspiro[1,3-oxazole-4,9′-xanthene]-2,2′-diamine], the IC50 in assay [1] was determined as 4.4 nM; in assay [2] it was 17 nM.

`NC1=N[C@@]2(CO1)c1cc(-c3cccnc3F)ccc1Oc1c(F)cc(N3CC4(CCCO4)C3)cc12` [Example 855, (4S)-4′-fluoro-7′-(2-fluoro-3-pyridinyl)-2′-(5-oxa-2-azaspiro[3.4]oct-2-yl)spiro[1,3-oxazole-4,9′-xanthen]-2-amine]: the results for the IC50 in assay [1] and in assay [2] were 0.7 nM and 2 nM, respectively.

In the case of `NC1=N[C@@]2(CO1)c1cc(-c3cccnc3F)ccc1Oc1c(F)cc(N3CC4(CCCOC4)C3)cc12` [Example 856, (4S)-4′-fluoro-7′-(2-fluoro-3-pyridinyl)-2′-(6-oxa-2-azaspiro[3.5]non-2-yl)spiro[1,3-oxazole-4,9′-xanthen]-2-amine], the IC50 worked out at 0.6 nM in assay [1] and 4 nM in assay [2].

In the case of `NC1=N[C@@]2(CO1)c1cc(-c3c(F)ccnc3F)ccc1Oc1c(F)cc(-c3ncccn3)cc12` [Example 858, (4S)-7′-(2,4-difluoro-3-pyridinyl)-4′-fluoro-2′-(2-pyrimidinyl)spiro[1,3-oxazole-4,9′-xanthen]-2-amine], the figures for the IC50 in assay [1] and in assay [2] were 0.5 nM and 18 nM, respectively.

As to `Cn1cc(-c2cc(F)c3c(c2)[C@]2(COC(N)=N2)c2cc(-c4c(F)ccnc4F)ccc2O3)cn1` [Example 859, (4S)-7′-(2,4-difluoro-3-pyridinyl)-4′-fluoro-2′-(1-methyl-1H-pyrazol-4-yl)spiro[1,3-oxazole-4,9′-xanthen]-2-amine], the IC50 stood at 0.5 nM in assay [1] and 11 nM in assay [2].

As for `NC1=N[C@@]2(CO1)c1cc(-c3cccnc3)c(F)cc1Oc1c(F)cc(N3CCOCC3)cc12` [Example 861, (4S)-3′,5′-difluoro-7′-(4-morpholinyl)-2′-(3-pyridinyl)spiro[1,3-oxazole-4,9′-xanthen]-2-amine], the IC50 in assay [1] is 1 nM; in assay [2], 15 nM.

For the compound `CC(C)(C#N)COc1cc(F)c2c(c1)[C@]1(COC(N)=N1)c1cc(-c3cccnc3F)c(F)cc1O2` [Example 862, 3-(((4S)-2-amino-4′,6′-difluoro-7′-(2-fluoro-3-pyridinyl)spiro[1,3-oxazole-4,9′-xanthen]-2′-yl)oxy)-2,2-dimethylpropanenitrile], the IC50 in assay [1] was 0.3 nM; in assay [2] it was 11 nM.

In the case of `CC(C)(C#N)COc1cc(F)c2c(c1)[C@@]1(COC(N)=N1)c1cc(-c3cccnc3F)c(F)cc1O2` [Example 863, 3-(((4R)-2-amino-4′,6′-difluoro-7′-(2-fluoro-3-pyridinyl)spiro[1,3-oxazole-4,9′-xanthen]-2′-yl)oxy)-2,2-dimethylpropanenitrile], the IC50 in assay [1] is 80.1 nM; in assay [2], 2360 nM.

As for `NC1=N[C@@]2(CO1)c1cc(-c3cccnc3)c(F)cc1Oc1c(F)cc(C3CCOCC3)cc12` [Example 864, (4S)-3′,5′-difluoro-2′-(3-pyridinyl)-7′-(tetrahydro-2H-pyran-4-yl)spiro[1,3-oxazole-4,9′-xanthen]-2-amine], the IC50 amounted to 1.1 nM in assay [1] and 30 nM in assay [2].

On to `NC1=N[C@@]2(CO1)c1cc(-c3cccnc3F)c(F)cc1Oc1c(F)cc(C3=CCCOC3)cc12` [Example 865, (4S)-7′-(5,6-dihydro-2H-pyran-3-yl)-3′,5′-difluoro-2′-(2-fluoro-3-pyridinyl)spiro[1,3-oxazole-4,9′-xanthen]-2-amine], for which the IC50 in assay [1] stood at 0.3 nM; in assay [2], 5 nM.

`NC1=N[C@]2(CO1)c1cc(-c3cccnc3F)c(F)cc1Oc1c(F)cc(C3=CCCOC3)cc12` [Example 866, (4R)-7′-(5,6-dihydro-2H-pyran-3-yl)-3′,5′-difluoro-2′-(2-fluoro-3-pyridinyl)spiro[1,3-oxazole-4,9′-xanthen]-2-amine]: the IC50 was 62.3 nM in assay [1] and 1720 nM in assay [2].

Take `NC1=N[C@]2(CO1)c1cc(-c3cccnc3F)c(F)cc1Oc1c(F)cc(C3=CCOCC3)cc12` [Example 868, (4R)-7′-(3,6-dihydro-2H-pyran-4-yl)-3′,5′-difluoro-2′-(2-fluoro-3-pyridinyl)spiro[1,3-oxazole-4,9′-xanthen]-2-amine]: the IC50 in assay [1] was 52.1 nM; in assay [2], 1130 nM.

`NC1=N[C@]2(CO1)c1cc(-c3cccnc3F)c(F)cc1Oc1c(F)cc(N3CCOCC3)cc12` [Example 870, (4R)-3′,5′-difluoro-2′-(2-fluoro-3-pyridinyl)-7′-(4-morpholinyl)spiro[1,3-oxazole-4,9′-xanthen]-2-amine]: the IC50 in assay [1] came out at 157 nM; in assay [2], 6570 nM.

Regarding `NC1=N[C@]2(CO1)c1cc(-c3cccnc3F)c(F)cc1Oc1c(F)cc(C3CCOCC3)cc12` [Example 871, (4R)-3′,5′-difluoro-2′-(2-fluoro-3-pyridinyl)-7′-(tetrahydro-2H-pyran-4-yl)spiro[1,3-oxazole-4,9′-xanthen]-2-amine], the figures for the IC50 in assay [1] and in assay [2] were 179 nM and 6470 nM, respectively.

As for `NC1=N[C@@]2(CO1)c1cc(-c3cccnc3F)c(F)cc1Oc1c(F)cc(C3CCOCC3)cc12` [Example 872, (4S)-3′,5′-difluoro-2′-(2-fluoro-3-pyridinyl)-7′-(tetrahydro-2H-pyran-4-yl)spiro[1,3-oxazole-4,9′-xanthen]-2-amine], the figures for the IC50 in assay [1] and in assay [2] were 0.6 nM and 15 nM, respectively.

With `NC1=N[C@@]2(CS1)c1cc(-c3cncnc3)c(F)cc1Oc1c(F)cc(C3=CCCOC3)cc12` [Example 873, (4S)-7′-(5,6-dihydro-2H-pyran-3-yl)-3′,5′-difluoro-2′-(5-pyrimidinyl)spiro[1,3-thiazole-4,9′-xanthen]-2-amine], the IC50 came to 0.3 nM in assay [1] and 7 nM in assay [2].

In the case of `NC1=N[C@]2(CS1)c1cc(-c3cncnc3)c(F)cc1Oc1c(F)cc(C3=CCCOC3)cc12` [Example 874, (4R)-7′-(5,6-dihydro-2H-pyran-3-yl)-3′,5′-difluoro-2′-(5-pyrimidinyl)spiro[1,3-thiazole-4,9′-xanthen]-2-amine], the IC50 was found to be 32.5 nM in assay [1] and 506 nM in assay [2].

Turning to `CC1(COc2cc(F)c3c(c2)[C@]2(CSC(N)=N2)c2cc(-c4cncnc4)c(F)cc2O3)COC1` [Example 875, (4S)-3′,5′-difluoro-7′-((3-methyl-3-oxetanyl)methoxy)-2′-(5-pyrimidinyl)spiro[1,3-thiazole-4,9′-xanthen]-2-amine], the IC50 in assay [1] was 0.5 nM; in assay [2], 8 nM.

With `CC1(COc2cc(F)c3c(c2)[C@@]2(CSC(N)=N2)c2cc(-c4cncnc4)c(F)cc2O3)COC1` [Example 876, (4R)-3′,5′-difluoro-7′-((3-methyl-3-oxetanyl)methoxy)-2′-(5-pyrimidinyl)spiro[1,3-thiazole-4,9′-xanthen]-2-amine], the IC50 in assay [1] was 44.9 nM; in assay [2] it was 634 nM.

Take `CC1(COc2cc(F)c3c(c2)[C@@]2(CSC(N)=N2)c2cc(-c4cccnc4)c(F)cc2O3)COC1` [Example 877, (4R)-3′,5′-difluoro-7′-((3-methyl-3-oxetanyl)methoxy)-2′-(3-pyridinyl)spiro[1,3-thiazole-4,9′-xanthen]-2-amine]: the IC50 was found to be 183 nM in assay [1] and 3000 nM in assay [2].

Regarding `CC1(COc2cc(F)c3c(c2)[C@]2(CSC(N)=N2)c2cc(-c4cccnc4)c(F)cc2O3)COC1` [Example 878, (4S)-3′,5′-difluoro-7′-((3-methyl-3-oxetanyl)methoxy)-2′-(3-pyridinyl)spiro[1,3-thiazole-4,9′-xanthen]-2-amine], the IC50 in assay [1] stood at 0.4 nM; in assay [2], 8 nM.

For `NC1=N[C@@]2(CS1)c1cc(-c3cccnc3F)c(F)cc1Oc1c(F)cc(N3CCOCC3)cc12` [Example 879, (4S)-3′,5′-difluoro-2′-(2-fluoro-3-pyridinyl)-7′-(4-morpholinyl)spiro[1,3-thiazole-4,9′-xanthen]-2-amine], the values for the IC50 in assay [1] and in assay [2] were 0.3 nM and 11 nM, respectively.

For the compound `NC1=N[C@]2(CS1)c1cc(-c3cccnc3F)c(F)cc1Oc1c(F)cc(N3CCOCC3)cc12` [Example 880, (4R)-3′,5′-difluoro-2′-(2-fluoro-3-pyridinyl)-7′-(4-morpholinyl)spiro[1,3-thiazole-4,9′-xanthen]-2-amine], the figures for the IC50 in assay [1] and in assay [2] were 1230 nM and no less than 10000 nM, respectively.

Turning to `NC1=N[C@@]2(CS1)c1cc(-c3cccnc3)c(F)cc1Oc1c(F)cc(C3=CCOCC3)cc12` [Example 881, (4S)-7′-(3,6-dihydro-2H-pyran-4-yl)-3′,5′-difluoro-2′-(3-pyridinyl)spiro[1,3-thiazole-4,9′-xanthen]-2-amine], the IC50 in assay [1] was determined as 0.5 nM; in assay [2], 23 nM.

For the compound `NC1=N[C@]2(CS1)c1cc(-c3cccnc3)c(F)cc1Oc1c(F)cc(C3=CCOCC3)cc12` [Example 882, (4R)-7′-(3,6-dihydro-2H-pyran-4-yl)-3′,5′-difluoro-2′-(3-pyridinyl)spiro[1,3-thiazole-4,9′-xanthen]-2-amine], the IC50 was 617 nM in assay [1] and no less than 10000 nM in assay [2].

Take `NC1=N[C@@]2(CS1)c1cc(-c3cccnc3)c(F)cc1Oc1c(F)cc(C3=CCCOC3)cc12` [Example 883, (4S)-7′-(5,6-dihydro-2H-pyran-3-yl)-3′,5′-difluoro-2′-(3-pyridinyl)spiro[1,3-thiazole-4,9′-xanthen]-2-amine]: the IC50 was 0.3 nM in assay [1] and 50 nM in assay [2].

Consider `NC1=N[C@]2(CS1)c1cc(-c3cccnc3)c(F)cc1Oc1c(F)cc(C3=CCCOC3)cc12` [Example 884, (4R)-7′-(5,6-dihydro-2H-pyran-3-yl)-3′,5′-difluoro-2′-(3-pyridinyl)spiro[1,3-thiazole-4,9′-xanthen]-2-amine], for which the IC50 in assay [1] is 162 nM; in assay [2], no less than 10000 nM.
